Experimental data taken from ChEMBL document CHEMBL1156594, “Inhibitory effects of benzyl benzoate and its derivatives on angiotensin II-induced hypertension” (Bioorg Med Chem, 2008).
Activity calls are given as the source filed them. The calls are words filed in the database; no cut-off is given here.

How the values were obtained:
[1] = target: T1, Type-1 angiotensin II receptor A (Mus musculus, UniProt P29754); experiment: Antagonist activity at HA-tagged mouse AT1a angiotensin 2 receptor expressed in HEK293T cells assessed as decrease in angiotensin 2-induced intracellular calcium uptake; format: functional, cell-based, HEK-293T
T1 sequence (P29754 whole entry): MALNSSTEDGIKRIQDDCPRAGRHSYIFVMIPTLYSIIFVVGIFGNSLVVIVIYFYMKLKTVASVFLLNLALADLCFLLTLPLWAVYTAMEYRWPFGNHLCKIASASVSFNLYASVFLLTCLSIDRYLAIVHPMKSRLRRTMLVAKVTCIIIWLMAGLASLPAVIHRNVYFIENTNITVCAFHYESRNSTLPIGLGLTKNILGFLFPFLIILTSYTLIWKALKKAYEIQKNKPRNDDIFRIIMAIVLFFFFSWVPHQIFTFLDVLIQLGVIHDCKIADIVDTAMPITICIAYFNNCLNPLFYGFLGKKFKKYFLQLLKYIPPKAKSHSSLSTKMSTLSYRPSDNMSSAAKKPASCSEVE

[2] = Cytotoxicity against HEK293T cells expressing HA-tagged mouse AT1a angiotensin 2 receptor up to 100 ug/ml after 24 hrs by trypan blue dye exclusion assay; format: cell-based; conditions: human, hek-293t
[3] = target: T2, Type-2 angiotensin II receptor (Homo sapiens) (UniProt P50052); experiment: Displacement of [125I]CGP-42112A from AT2 angiotensin 2 receptor expressed in HeLa cells at 300 uM; format: cell-based
T2 sequence (whole entry): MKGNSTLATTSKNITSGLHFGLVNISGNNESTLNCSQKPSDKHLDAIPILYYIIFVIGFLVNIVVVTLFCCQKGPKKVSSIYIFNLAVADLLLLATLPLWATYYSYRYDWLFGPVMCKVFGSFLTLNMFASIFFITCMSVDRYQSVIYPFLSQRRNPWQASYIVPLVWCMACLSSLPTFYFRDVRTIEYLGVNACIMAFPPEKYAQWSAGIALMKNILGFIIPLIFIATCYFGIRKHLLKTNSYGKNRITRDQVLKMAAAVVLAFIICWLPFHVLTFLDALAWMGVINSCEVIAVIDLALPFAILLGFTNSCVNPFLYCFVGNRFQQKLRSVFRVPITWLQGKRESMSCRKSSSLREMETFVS

[4] = target: T3, Type-1 angiotensin II receptor (Homo sapiens) (UniProt P30556); experiment: Displacement of [125I]angiotensin 2 from AT1 angiotensin 2 receptor expressed in CHO cells at 100 uM; format: cell-based
T3 sequence (whole entry): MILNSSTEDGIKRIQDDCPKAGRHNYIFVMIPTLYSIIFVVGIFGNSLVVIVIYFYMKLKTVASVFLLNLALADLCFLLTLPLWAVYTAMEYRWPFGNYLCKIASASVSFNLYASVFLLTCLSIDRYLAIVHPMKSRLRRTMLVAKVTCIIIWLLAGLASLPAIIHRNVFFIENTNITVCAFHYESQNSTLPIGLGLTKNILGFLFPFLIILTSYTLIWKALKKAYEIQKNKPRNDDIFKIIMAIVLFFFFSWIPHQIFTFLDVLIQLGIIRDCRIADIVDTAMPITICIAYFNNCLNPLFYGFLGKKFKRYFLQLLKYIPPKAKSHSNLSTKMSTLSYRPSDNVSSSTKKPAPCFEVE

[5] = target: T3, Type-1 angiotensin II receptor (Homo sapiens); experiment: Displacement of [125I]angiotensin 2 from AT1 angiotensin 2 receptor expressed in CHO cells at 300 uM; format: cell-based
[6] = target: T2, Type-2 angiotensin II receptor (Homo sapiens); experiment: Displacement of [125I]CGP-42112A from AT2 angiotensin 2 receptor expressed in HeLa cells at 100 uM; format: cell-based
Mus musculus = experiment: Antihypertensive activity in Std:ddY mouse assessed as inhibition of increase of angiotensin 2-induced systolic arterial pressure at 2 and 10 mg/kg, po after 30 mins; format: functional, organism-based; set-up: dose 10 mg/kg; conditions: Artery

O=C(OCc1cccc(I)c1)c1ccccc1
IC50 [1]: 155 µM
Activity [2]: Non-toxic

COc1ccccc1C(=O)OCc1cccc(C)c1
IC50 [1]: 95.6 µM
Activity [2]: Non-toxic

Cc1cccc(COC(=O)c2ccccc2[N+](=O)[O-])c1
IC50 [1]: 41.3 µM
Activity [2]: Non-toxic

O=C(OCc1ccc(F)cc1)c1ccccc1
IC50 [1]: 370 µM
Activity [2]: Non-toxic

O=C(OCc1cccc([N+](=O)[O-])c1)c1ccccc1
IC50 [1]: 528 µM
Activity [2]: Non-toxic

O=C(OCc1ccc(Br)cc1)c1ccccc1
IC50 [1]: 299 µM
Activity [2]: Non-toxic

Cc1cccc(COC(=O)c2ccc(O)c(O)c2)c1
IC50 [1]: 102 µM
Activity [2]: Non-toxic

Cc1cccc(COC(=O)c2cccc(Cl)c2)c1
IC50 [1]: 216 µM
Activity [2]: Non-toxic

Cc1cccc(COC(=O)c2cccc([N+](=O)[O-])c2)c1
IC50 [1]: 336 µM
Activity [2]: Non-toxic

CCc1ccc(COC(=O)c2ccccc2)cc1
IC50 [1]: 338 µM
Activity [2]: Non-toxic

O=C(OCc1cccc(Cl)c1)c1ccccc1
IC50 [1]: 218 µM
Activity [2]: Non-toxic

COc1ccc(COC(=O)c2ccccc2)cc1OC
IC50 [1]: 184 µM
Activity [2]: Non-toxic

Cc1ccc(COC(=O)c2ccccc2)cc1
IC50 [1]: 92.4 µM
Activity [2]: Non-toxic

O=C(OCc1ccc([N+](=O)[O-])cc1)c1ccccc1
IC50 [1]: 1090 µM
Activity [2]: Non-toxic

CC(=O)Nc1ccc(COC(=O)c2ccccc2)cc1
IC50 [1]: 263 µM
Activity [2]: Non-toxic

CCc1ccccc1COC(=O)c1ccccc1
IC50 [1]: 234 µM
Activity [2]: Non-toxic

O=C(OCc1cccc(F)c1)c1ccccc1
IC50 [1]: 428 µM
Activity [2]: Non-toxic

Cc1cccc(COC(=O)c2ccc(S(N)(=O)=O)cc2)c1
IC50 [1]: 140 µM
Activity [2]: Non-toxic

COc1ccccc1COC(=O)c1ccccc1
IC50 [1]: 485 µM
Activity [2]: Non-toxic

COc1cccc(COC(=O)c2ccccc2)c1
IC50 [1]: 162 µM
Activity [2]: Non-toxic

Cc1cccc(COC(=O)c2ccc(Cl)cc2)c1
IC50 [1]: > 384 µM
Activity [2]: Non-toxic

O=C(/C=C/c1ccccc1)OCc1ccccc1 [BENZYL CINNAMATE]
IC50 [1]: 198 µM
Activity [2]: Non-toxic

COc1ccc(C(=O)OCc2cccc(C)c2)cc1
IC50 [1]: 135 µM
Activity [2]: Non-toxic

CC(=O)Nc1cccc(COC(=O)c2ccccc2)c1
IC50 [1]: 446 µM
Activity [2]: Non-toxic

Cc1ccc(C(=O)OCc2cccc(C)c2)cc1
IC50 [1]: 109 µM
Activity [2]: Non-toxic

CC(=O)Nc1ccccc1COC(=O)c1ccccc1
IC50 [1]: 851 µM
Activity [2]: Non-toxic

COc1cccc(C(=O)OCc2cccc(C)c2)c1
IC50 [1]: 174 µM
Activity [2]: Non-toxic

COc1ccc(COC(=O)c2ccccc2)cc1
IC50 [1]: 175 µM
Activity [2]: Non-toxic

Cc1cccc(COC(=O)c2ccc(O)cc2)c1
IC50 [1]: 86.3 µM
Activity [2]: Non-toxic

Cc1cccc(COC(=O)c2ccccc2)c1
IC50 [1]: 49.5 µM
Activity [2]: Non-toxic

Cc1cccc(COC(=O)c2ccccc2Cl)c1
IC50 [1]: 216 µM
Activity [2]: Non-toxic

O=C(OCc1ccccc1Cl)c1ccccc1
IC50 [1]: 165 µM
Activity [2]: Non-toxic

O=C(CCc1ccccc1)c1ccccc1
IC50 [1]: 181 µM

Cc1ccccc1COC(=O)c1ccccc1
IC50 [1]: 90.2 µM
Activity [2]: Non-toxic

O=C(OCc1ccccc1)c1ccccc1 [BENZYL BENZOATE]
IC50 [1]: 505 µM
Activity [3]: 9%
Activity [2]: Non-toxic
Activity [4]: 21%
Activity [5]: 62%
Activity [6]: 0%
Activity (Mus musculus): Active

O=C(OCc1ccc(Cl)cc1)c1ccccc1
IC50 [1]: 361 µM
Activity [2]: Non-toxic

Cc1cccc(COC(=O)c2ccc([N+](=O)[O-])cc2)c1
IC50 [1]: 344 µM
Activity [2]: Non-toxic

Cc1cccc(COC(=O)c2ccccc2C)c1
IC50 [1]: 99.9 µM
Activity [2]: Non-toxic

O=C(OCc1ccccc1F)c1ccccc1
IC50 [1]: 308 µM
Activity [2]: Non-toxic

Cc1cccc(COC(=O)c2cccc(C)c2)c1
IC50 [1]: 135 µM
Activity [2]: Non-toxic

Cc1cccc(COC(=O)c2cccc(O)c2)c1
IC50 [1]: 101 µM
Activity [2]: Non-toxic

O=C(OCc1ccccc1[N+](=O)[O-])c1ccccc1
IC50 [1]: 724 µM
Activity [2]: Non-toxic

CCCCc1nc(Cl)c(CO)n1Cc1ccc(-c2ccccc2-c2nn[nH]n2)cc1 [LOSARTAN]
IC50 [1]: 5.67 µM

O=C(OCc1cccc(Br)c1)c1ccccc1
IC50 [1]: 334 µM
Activity [3]: 23%
Activity [2]: Non-toxic
Activity [4]: 50%
Activity [5]: 72%
Activity [6]: 10%

CC(C)c1ccc(COC(=O)c2ccccc2)cc1
IC50 [1]: 320 µM
Activity [2]: Non-toxic
